Where “and” joins values, the source holds several entries; their conditions need not be identical. Equal values may be shown once.
Key:
[1] = Clinical pharmacokinetics, SAD/MAD study and food effect; format: in vivo, human
Protocol: Two clinical studies have been completed with N-(4-tert-Butyl-benzyl)-3-chloro-N-[2-(4-chloro-3-ethyl-phenyl)-ethyl]-2-fluoro-5-trifluoromethyl-benz-amide in male healthy subject and male mildly dyslipidemic subjects.
Following oral administration of N-(4-tert-Butyl-benzyl)-3-chloro-N-[2-(4-chloro-3-ethyl-phenyl)-ethyl]-2-fluoro-5-trifluoromethyl-benz-amide at single ascending doses (SAD) and multiple ascending doses (MAD) in a first clinical study, a lag time (Tlag) of 0.5 hour was observed, and Cmax was achieved on average at 3 hours post-dose.
Food increased the oral bioavailability of N-(4-tert-Butyl-benzyl)-3-chloro-N-[2-(4-chloro-3-ethyl-phenyl)-ethyl]-2-fluoro-5-trifluoromethyl-benz-amide. A standard breakfast increased exposure in terms of AUC and Cmax by approximately 4- to 6-fold, compared with the fasted state and depending on the formulation used.

[2] = Pharmacokinetic properties and excretion in the cynomolgus monkey; format: in vivo
Protocol: (§1) The pharmacokinetic (PK) properties of N-(4-tert-Butyl-benzyl)-3-chloro-N-[2-(4-chloro-3-ethyl-phenyl)-ethyl]-2-fluoro-5-trifluoromethyl-benz-amide were assessed in the rat and cynomolgus monkey. […] The very high protein binding, in combination with moderate membrane permeability, is the likely cause for the low volume of distribution observed in vivo.
(§2) In the rat and cynomolgus monkey, the major excretion route was the bile and feces, independent of the route of administration (approximately 92% of administered dose eliminated). Less than 1% of the dose was eliminated renally.

[3] = system: HDL-C, LDL-C, apoA-I, apoB-100; assay: Plasma lipids and apolipoproteins after multiple doses for 14 days in clinical study; format: in vivo, human
Protocol: The CETP inhibition achieved with multiple doses of up to 420 mg N-(4-tert-Butyl-benzyl)-3-chloro-N-[2-(4-chloro-3-ethyl-phenyl)-ethyl]-2-fluoro-5-trifluoromethyl-benz-amide for 14 days in healthy subjects was associated with increase of HDL-C and apolipoprotein A-I (apoA-I) and decrease in LDL-C and apolipoprotein B-100 (apoB-100). […] The maximum mean increase from baseline ranged from 48% to 55% with the 180 and 420 mg doses, respectively, and was maintained over the entire dosing interval of 24 hours. For LDL-C, plasma levels decreased after 14 days of treatment with all N-(4-tert-Butyl-benzyl)-3-chloro-N-[2-(4-chloro-3-ethyl-phenyl)-ethyl]-2-fluoro-5-trifluoromethyl-benz-amide doses from 10 to 420 mg.

[4] = Membrane permeability; format: in vitro ADME
Protocol: as §1

[5] = system: CETP activity; assay: In vivo inhibition of CETP activity in hamsters
[6] = system: plasma protein; assay: In vitro plasma protein binding; format: in vitro ADME
Protocol: as §1

[7] = molecular target: T1, cholesteryl ester transfer protein (CETP) (Homo sapiens, UniProt P11597); assay: In vitro inhibition of CETP activity; format: biochemical
T1 sequence (P11597 18-493): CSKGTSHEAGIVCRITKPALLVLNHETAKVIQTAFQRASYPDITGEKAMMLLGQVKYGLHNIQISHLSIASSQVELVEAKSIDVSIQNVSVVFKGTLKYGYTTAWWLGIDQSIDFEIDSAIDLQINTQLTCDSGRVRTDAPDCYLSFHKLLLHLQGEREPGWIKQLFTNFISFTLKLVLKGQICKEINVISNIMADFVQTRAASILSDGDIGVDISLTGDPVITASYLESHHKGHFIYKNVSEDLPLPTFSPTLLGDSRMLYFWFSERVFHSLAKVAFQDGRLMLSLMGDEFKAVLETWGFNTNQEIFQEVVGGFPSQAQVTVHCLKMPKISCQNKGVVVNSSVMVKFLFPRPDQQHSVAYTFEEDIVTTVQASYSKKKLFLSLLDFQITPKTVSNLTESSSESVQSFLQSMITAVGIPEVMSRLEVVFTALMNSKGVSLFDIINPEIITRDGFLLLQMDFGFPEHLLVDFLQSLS

[8] = molecular target: T2, plasma CETP activity (Homo sapiens, UniProt P11597); assay: Plasma CETP activity and CETP mass in combined SAD/MAD clinical study; format: in vivo
T2 construct: from tissue; host or cells: plasma of study subjects
T2 sequence (P11597 18-493): T1 sequence (P11597 18-493)
Protocol: The main difference between the different doses was the duration of the inhibition, which was sustained for 24 hours with the two highest tested multiple dose levels (180 mg and 420 mg). […] After multiple doses of N-(4-tert-Butyl-benzyl)-3-chloro-N-[2-(4-chloro-3-ethyl-phenyl)-ethyl]-2-fluoro-5-trifluoromethyl-benz-amide for 14 days, a similar trend in CETP inhibition was observed.

[9] = molecular target: T3, CETP activity (Macaca fascicularis, UniProt P47896); assay: In vivo inhibition of CETP activity in cynomolgus monkeys
T3 construct: from tissue; host or cells: cynomolgus monkey, in vivo (endogenous circulating CETP)
T3 sequence (P47896 18-493): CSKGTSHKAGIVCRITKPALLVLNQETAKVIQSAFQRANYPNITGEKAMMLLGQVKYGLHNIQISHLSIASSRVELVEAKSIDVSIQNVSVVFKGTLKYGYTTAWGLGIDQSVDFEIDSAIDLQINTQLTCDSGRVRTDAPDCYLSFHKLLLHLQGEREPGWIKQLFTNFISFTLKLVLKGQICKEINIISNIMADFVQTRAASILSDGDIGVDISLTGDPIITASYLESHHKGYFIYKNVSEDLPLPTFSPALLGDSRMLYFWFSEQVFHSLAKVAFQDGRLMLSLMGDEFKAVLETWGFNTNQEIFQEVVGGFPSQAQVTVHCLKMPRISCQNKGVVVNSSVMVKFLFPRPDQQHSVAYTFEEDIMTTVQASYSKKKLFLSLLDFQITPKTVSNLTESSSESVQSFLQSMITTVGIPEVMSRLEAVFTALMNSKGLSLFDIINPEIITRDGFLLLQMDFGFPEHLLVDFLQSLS

[10] = Pharmacokinetic properties and excretion in the rat; format: in vivo
Protocol: as §1, §2

[11] = system: 50 pharmacologically relevant receptors; assay: Binding screen on 50 pharmacologically relevant receptors; settings: concentration of 10 μM
[12] = independent of the route of administration
[13] = multiple doses of up to 420 mg for 14 days, healthy subjects

accumulation ratio for AUC0-24h ([1]; 420 mg once daily, Day 14 to Day 1): 1.4
accumulation with once-daily regimen ([1]; across doses except the highest dose (420 mg)): No accumulation was apparent
half-life ([1]; male, human, in vivo, oral, after multiple doses above 10 mg, read-out: mean terminal half-life): 15 to 35 h
dose up to which AUC0-24h and Cmax increased dose-proportionally ([1]; multiple doses (part 2 MAD)): ≤ 180 mg
lag time (Tlag) ([1]; oral, SAD and MAD, first clinical study): 0.5 h
dose up to which AUC0-24h and Cmax increased dose-proportionally ([1]; single doses (part 1 SAD)): ≤ 360 mg
absolute oral bioavailability [2]: relatively low
dose eliminated renally [2]: Less than 1%
gastrointestinal absorption [2]: limited
terminal half-life [2]: medium to long
total systemic clearance [2]: low
volume of distribution [2]: low
plasma protein binding ([2]; across species): very high
administered dose eliminated via bile and feces [2, 12]: approximately 92%
membrane permeability [4]: moderate
IC50 [7]: 8 nM and 7.21 nM
inhibition of plasma CETP activity ([8]; first measurement, 2 hours post-dose, Day 1, all doses, healthy and mildly dyslipidemic subjects): Complete CETP inhibition
duration of the CETP inhibition ([8]; two highest multiple dose levels (180 mg and 420 mg)): 24 h
absolute oral bioavailability [10]: relatively low
dose eliminated renally [10]: Less than 1%
gastrointestinal absorption [10]: limited
terminal half-life [10]: medium to long
total systemic clearance [10]: low
volume of distribution [10]: low
plasma protein binding ([10]; across species): very high
administered dose eliminated via bile and feces [10, 12]: approximately 92%
binding to 50 pharmacologically relevant receptors [11]: no significant binding
SMILES: CCc1cc(CCN(Cc2ccc(C(C)(C)C)cc2)C(=O)c2cc(C(F)(F)F)cc(Cl)c2F)ccc1Cl [Compound 1, N-(4-tert-Butyl-benzyl)-3-chloro-N-[2-(4-chloro-3-ethyl-phenyl)-ethyl]-2-fluoro-5-trifluoromethyl-benzamide]
mean LDL-C decrease over the entire dosing interval ([3]; 180 mg dose and higher doses, 14 days): at least 30%
HDL-C maximum mean increase from baseline ([3]; 180 mg, 14 days): 48%
HDL-C maximum mean increase from baseline ([3]; 420 mg, 14 days): 55%
apolipoprotein A-I (apoA-I) [3, 13]: increase
apolipoprotein B-100 (apoB-100) [3, 13]: decrease
inhibition of CETP activity in vivo [5]: inhibition of CETP activity has been demonstrated
plasma protein binding in vitro [6]: extremely high and concentration-independent
CETP mass ([8]; after multiple doses): dose-dependent and time-dependent increase
inhibition of CETP activity in vivo [9]: inhibition of CETP activity has been demonstrated

Reference: patent US20170035708A1, “USE OF N-(4-TERT-BUTYLBENZYL)-3-CHLORO-N-[2-(4-CHLORO-3-ETHYL-PHENYL)-ETHYL]-2-FLUORO-5-TRIFLUOROMETHYL-BENZAMIDE FOR THE TREATMENT OF EYE DISEASES” (Hoffmann-La Roche Inc., priority 2013, published 2017)
